The values below come from BindingDB's records for doi:10.1021/cc0600021 (Darmstadt Technical University, 2006).

Structures are written as SMILES.

Sequence of Beta-secretase 1 (P56817 whole entry): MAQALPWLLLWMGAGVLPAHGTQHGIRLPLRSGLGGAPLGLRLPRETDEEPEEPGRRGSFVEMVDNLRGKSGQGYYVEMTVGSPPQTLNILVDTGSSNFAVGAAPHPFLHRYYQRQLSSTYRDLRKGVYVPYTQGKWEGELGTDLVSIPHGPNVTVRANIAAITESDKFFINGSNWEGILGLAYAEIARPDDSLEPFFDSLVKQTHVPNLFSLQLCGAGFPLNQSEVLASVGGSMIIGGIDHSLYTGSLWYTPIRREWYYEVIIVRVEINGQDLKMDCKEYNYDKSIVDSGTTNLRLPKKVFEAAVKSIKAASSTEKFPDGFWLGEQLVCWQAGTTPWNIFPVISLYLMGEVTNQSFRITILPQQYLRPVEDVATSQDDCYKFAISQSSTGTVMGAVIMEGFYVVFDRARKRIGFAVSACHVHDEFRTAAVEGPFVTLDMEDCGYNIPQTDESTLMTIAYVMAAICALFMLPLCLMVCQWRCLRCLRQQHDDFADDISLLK

The test concerns the target Beta-secretase 1 (Homo sapiens, UniProt P56817). As to the kind of experiment: Fluorescence Resonance Energy Transfer (FRET) Assay. To be noted: 20 °C. The protocol: The FRET assay was performed at 20 C on a FLUOstar (BMG Lab Technologies, D-77656 Offenburg) using 96-well microtiter plates (Dynex Microfluor 2, Chantilly, VA).
Compound `O=C1CN(Cc2cccc(C(F)(F)F)c2)C(=O)C1Sc1ccccc1` (configuration not stated) [N-Substituted tetramic acid, 89] displayed a concentration for half-maximal inhibition (IC50) above 200 µM. The same measure for `COc1ccc(CN2CC(=O)C(Sc3ccccc3)C2=O)cc1` (configuration not stated) [N-Substituted tetramic acid, 91]: above 200 µM. The result for `O=C1CN(Cc2ccccc2)C(=O)C1SCc1cccc(C(F)(F)F)c1` (configuration not stated) [N-Substituted tetramic acid, 92] reads 212 µM. The compound `CC(C)CC1NC(=O)C(SCc2cccc(C(F)(F)F)c2)C1=O` (configuration not stated) [Tetramic acid, 25] displayed an IC50 of 194 µM.

`CC(C)CC1NC(=O)C(SCC(=O)NCc2ccc3c(c2)OCO3)C1=O` (configuration not stated) [Tetramic acid, 30] gave a 50% inhibitory concentration (IC50) of 200 µM. The result for `CCC(C)C1NC(=O)C(SCc2cccc(C(F)(F)F)c2)C1=O` (configuration not stated) [Tetramic acid, 38] reads 60 µM; that for `CCC(C)C1NC(=O)C(SCc2ccco2)C1=O` (configuration not stated) [Tetramic acid, 43], 200 µM. Turning to `CCC(C)C1NC(=O)C(SCC(=O)NCc2ccc3c(c2)OCO3)C1=O` (configuration not stated) [Tetramic acid, 44], the half-maximal inhibitory concentration (IC50) is above 200 µM. The result for `O=C1NC(Cc2ccccc2)C(=O)C1SCc1ccco1` (configuration not stated) [Tetramic acid, 56] reads 145 µM; that for `O=C1OC(c2ccccc2)C(=O)C1Sc1ccccc1` (configuration not stated) [Tetramic acid, 72], 105 µM. The result for `O=C1OC(c2ccccc2)C(=O)C1SCCc1ccccc1` (configuration not stated) [Tetramic acid, 74] reads above 200 µM. In turn, `O=C1OC(CCc2ccccc2)C(=O)C1SCc1cccc(C(F)(F)F)c1` (configuration not stated) [Tetramic acid, 77] displayed an IC50 above 200 µM.
